In patent US20240415914A1, “Water Dispersible Cannabinoid Compositions” (priority 2021, published 2024):

Assay: Stability of cannabinoid and Vitamin E components of Beverage 1 (AB White) stored at 8° C. and 21-25° C., LCMSMS over 570 days
Format: physicochemical
Conditions: for Stability in AB White, 8° C. (content by LCMSMS): beverage stored at 8° C.; for Stability in AB White, 21-25° C. (content by LCMSMS): beverage stored at 21-25° C.
Protocol: The LCMSMS was calibrated for 0-1000 ng/ml cannabinoids with the same resin material used in the preparation of the concentrates. At each time period, 100 ml of beverage was diluted with 10 ml of methanol and injected into the LCMSMS for analysis.

With C=C(C)[C@@H]1CCC(C)=C[C@H]1c1c(O)cc(CCCCC)c(C(=O)O)c1O [CBDA, cannabidiolic acid] the “Stability in AB White, 8° C. (content by LCMSMS)” value (day 0) was 1.75 µg/mL, the “Stability in AB White, 8° C. (content by LCMSMS)” value (day 1) was 1.72 µg/mL and the “Stability in AB White, 8° C. (content by LCMSMS)” value (day 2) was 1.76 µg/mL. For the same compound, the “Stability in AB White, 8° C. (content by LCMSMS)” value (day 3) was 1.76 µg/mL, the “Stability in AB White, 8° C. (content by LCMSMS)” value (day 5) was 1.71 µg/mL and the “Stability in AB White, 8° C. (content by LCMSMS)” value (day 8) was 1.75 µg/mL. The “Stability in AB White, 8° C. (content by LCMSMS)” value (day 9) was 1.73 µg/mL, the “Stability in AB White, 8° C. (content by LCMSMS)” value (day 10) was 1.76 µg/mL and the “Stability in AB White, 8° C. (content by LCMSMS)” value (day 11) was 1.70 µg/mL. For the same compound, the “Stability in AB White, 8° C. (content by LCMSMS)” value (day 12) was 1.71 µg/mL, the “Stability in AB White, 8° C. (content by LCMSMS)” value (day 15) was 1.74 µg/mL and the “Stability in AB White, 8° C. (content by LCMSMS)” value (day 16) was 1.73 µg/mL. The “Stability in AB White, 8° C. (content by LCMSMS)” value (day 17) was 1.73 µg/mL, the “Stability in AB White, 8° C. (content by LCMSMS)” value (day 18) was 1.76 µg/mL and the “Stability in AB White, 8° C. (content by LCMSMS)” value (day 19) was 1.74 µg/mL. The “Stability in AB White, 8° C. (content by LCMSMS)” value (day 22) was 1.70 µg/mL, the “Stability in AB White, 8° C. (content by LCMSMS)” value (day 23) was 1.76 µg/mL and the “Stability in AB White, 8° C. (content by LCMSMS)” value (day 24) was 1.72 µg/mL. For the same compound, the “Stability in AB White, 8° C. (content by LCMSMS)” value (day 25) was 1.75 µg/mL, the “Stability in AB White, 8° C. (content by LCMSMS)” value (day 26) was 1.75 µg/mL and the “Stability in AB White, 8° C. (content by LCMSMS)” value (day 29) was 1.75 µg/mL. The “Stability in AB White, 8° C. (content by LCMSMS)” value (day 30) was 1.76 µg/mL, the “Stability in AB White, 8° C. (content by LCMSMS)” value (day 60) was 1.70 µg/mL and the “Stability in AB White, 8° C. (content by LCMSMS)” value (day 90) was 1.70 µg/mL. For the same compound, the “Stability in AB White, 8° C. (content by LCMSMS)” value (day 120) was 1.67 µg/mL, the “Stability in AB White, 8° C. (content by LCMSMS)” value (day 150) was 1.71 µg/mL and the “Stability in AB White, 8° C. (content by LCMSMS)” value (day 180) was 1.75 µg/mL. For the same compound, the “Stability in AB White, 8° C. (content by LCMSMS)” value (day 210) was 1.68 µg/mL, the “Stability in AB White, 8° C. (content by LCMSMS)” value (day 240) was 1.70 µg/mL and the “Stability in AB White, 8° C. (content by LCMSMS)” value (day 270) was 1.70 µg/mL. For the same compound, the “Stability in AB White, 8° C. (content by LCMSMS)” value (day 300) was 1.69 µg/mL, the “Stability in AB White, 8° C. (content by LCMSMS)” value (day 330) was 1.70 µg/mL and the “Stability in AB White, 8° C. (content by LCMSMS)” value (day 360) was 1.70 µg/mL. The “Stability in AB White, 8° C. (content by LCMSMS)” value (day 390) was 1.70 µg/mL, the “Stability in AB White, 8° C. (content by LCMSMS)” value (day 420) was 1.67 µg/mL and the “Stability in AB White, 8° C. (content by LCMSMS)” value (day 450) was 1.68 µg/mL. The “Stability in AB White, 8° C. (content by LCMSMS)” value (day 480) was 1.66 µg/mL, the “Stability in AB White, 8° C. (content by LCMSMS)” value (day 510) was 1.61 µg/mL and the “Stability in AB White, 8° C. (content by LCMSMS)” value (day 540) was 1.61 µg/mL. For the same compound, the “Stability in AB White, 8° C. (content by LCMSMS)” value (day 570) was 1.60 µg/mL, the “Stability in AB White, 21-25° C. (content by LCMSMS)” value (day 0) was 1.75 µg/mL and the “Stability in AB White, 21-25° C. (content by LCMSMS)” value (day 1) was 1.76 µg/mL. For the same compound, the “Stability in AB White, 21-25° C. (content by LCMSMS)” value (day 2) was 1.70 µg/mL, the “Stability in AB White, 21-25° C. (content by LCMSMS)” value (day 3) was 1.71 µg/mL and the “Stability in AB White, 21-25° C. (content by LCMSMS)” value (day 5) was 1.69 µg/mL. The “Stability in AB White, 21-25° C. (content by LCMSMS)” value (day 8) was 1.77 µg/mL, the “Stability in AB White, 21-25° C. (content by LCMSMS)” value (day 9) was 1.74 µg/mL and the “Stability in AB White, 21-25° C. (content by LCMSMS)” value (day 10) was 1.73 µg/mL. For the same compound, the “Stability in AB White, 21-25° C. (content by LCMSMS)” value (day 11) was 1.76 µg/mL, the “Stability in AB White, 21-25° C. (content by LCMSMS)” value (day 12) was 1.74 µg/mL and the “Stability in AB White, 21-25° C. (content by LCMSMS)” value (day 15) was 1.69 µg/mL. For the same compound, the “Stability in AB White, 21-25° C. (content by LCMSMS)” value (day 16) was 1.75 µg/mL, the “Stability in AB White, 21-25° C. (content by LCMSMS)” value (day 17) was 1.72 µg/mL and the “Stability in AB White, 21-25° C. (content by LCMSMS)” value (day 18) was 1.75 µg/mL. For the same compound, the “Stability in AB White, 21-25° C. (content by LCMSMS)” value (day 19) was 1.70 µg/mL, the “Stability in AB White, 21-25° C. (content by LCMSMS)” value (day 22) was 1.70 µg/mL and the “Stability in AB White, 21-25° C. (content by LCMSMS)” value (day 23) was 1.73 µg/mL. The “Stability in AB White, 21-25° C. (content by LCMSMS)” value (day 24) was 1.70 µg/mL, the “Stability in AB White, 21-25° C. (content by LCMSMS)” value (day 25) was 1.73 µg/mL and the “Stability in AB White, 21-25° C. (content by LCMSMS)” value (day 26) was 1.75 µg/mL. The “Stability in AB White, 21-25° C. (content by LCMSMS)” value (day 29) was 1.76 µg/mL, the “Stability in AB White, 21-25° C. (content by LCMSMS)” value (day 30) was 1.71 µg/mL and the “Stability in AB White, 21-25° C. (content by LCMSMS)” value (day 60) was 1.68 µg/mL. The “Stability in AB White, 21-25° C. (content by LCMSMS)” value (day 90) was 1.67 µg/mL, the “Stability in AB White, 21-25° C. (content by LCMSMS)” value (day 120) was 1.66 µg/mL and the “Stability in AB White, 21-25° C. (content by LCMSMS)” value (day 150) was 1.64 µg/mL. For the same compound, the “Stability in AB White, 21-25° C. (content by LCMSMS)” value (day 180) was 1.69 µg/mL, the “Stability in AB White, 21-25° C. (content by LCMSMS)” value (day 210) was 1.73 µg/mL and the “Stability in AB White, 21-25° C. (content by LCMSMS)” value (day 240) was 1.73 µg/mL. For the same compound, the “Stability in AB White, 21-25° C. (content by LCMSMS)” value (day 270) was 1.71 µg/mL, the “Stability in AB White, 21-25° C. (content by LCMSMS)” value (day 300) was 1.73 µg/mL and the “Stability in AB White, 21-25° C. (content by LCMSMS)” value (day 330) was 1.72 µg/mL. The “Stability in AB White, 21-25° C. (content by LCMSMS)” value (day 360) was 1.69 µg/mL, the “Stability in AB White, 21-25° C. (content by LCMSMS)” value (day 390) was 1.67 µg/mL and the “Stability in AB White, 21-25° C. (content by LCMSMS)” value (day 420) was 1.64 µg/mL. The “Stability in AB White, 21-25° C. (content by LCMSMS)” value (day 450) was 1.70 µg/mL, the “Stability in AB White, 21-25° C. (content by LCMSMS)” value (day 480) was 1.63 µg/mL and the “Stability in AB White, 21-25° C. (content by LCMSMS)” value (day 510) was 1.66 µg/mL. The “Stability in AB White, 21-25° C. (content by LCMSMS)” value (day 540) was 1.63 µg/mL and the “Stability in AB White, 21-25° C. (content by LCMSMS)” value (day 570) was 1.61 µg/mL.
